Here are results for seven compounds from ChEMBL document CHEMBL2150990, “Substrate-like water soluble lipase inhibitors from Filipendula kamtschatica” (Bioorg Med Chem Lett, 2012).

Assay [1] addresses T1, Pancreatic triacylglycerol lipase (Sus scrofa) (UniProt P00591).
T1 sequence (whole entry): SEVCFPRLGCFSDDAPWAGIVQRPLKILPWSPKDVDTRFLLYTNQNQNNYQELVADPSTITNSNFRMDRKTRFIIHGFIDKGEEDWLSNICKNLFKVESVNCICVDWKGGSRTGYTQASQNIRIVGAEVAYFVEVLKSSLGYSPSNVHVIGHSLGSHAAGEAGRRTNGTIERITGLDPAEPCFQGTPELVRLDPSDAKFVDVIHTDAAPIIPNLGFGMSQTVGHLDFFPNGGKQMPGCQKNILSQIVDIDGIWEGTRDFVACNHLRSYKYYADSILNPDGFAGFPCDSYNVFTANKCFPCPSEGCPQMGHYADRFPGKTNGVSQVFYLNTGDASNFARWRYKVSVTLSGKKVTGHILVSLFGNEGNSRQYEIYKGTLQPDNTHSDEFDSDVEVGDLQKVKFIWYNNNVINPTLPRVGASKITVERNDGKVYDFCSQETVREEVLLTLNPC
The note with it: 0.4 uM.
Description: Inhibition of porcine pancreatic lipase using micellar solution of triolein as substrate at 0.4 uM preincubated for 5 mins before substrate addition measured after 30 mins

The target of assay [2] is T2, Pancreatic triacylglycerol lipase (Sus scrofa, UniProt P00591).
T2 sequence (P00591 whole entry): T1 sequence (whole entry)
In words: Inhibition of porcine pancreatic lipase using micellar solution of triolein as substrate preincubated for 5 mins before substrate addition measured after 30 mins.

The target of assay [3] is T1, Pancreatic triacylglycerol lipase (Sus scrofa). In words: Inhibition of porcine pancreatic lipase using micellar solution of triolein as substrate at 1 mM preincubated for 5 mins before substrate addition measured after 30 mins.

Where only a bound is given, the exact number is not on record here.

As to `CCCCCCCCCCC[C@@H](C[C@@H]1OC(=O)[C@H]1CCCCCC)OC(=O)[C@H](CC(C)C)NC=O`, the inhibition in assay [1] was determined as 55%.

In assay [2], `O=C(O)[C@H](O)[C@@H](O)CO` [L-THREONIC ACID] yielded an IC50 of more than 1000 µM. In assay [3], this compound returned an inhibition of 30%.

In turn, `O=C(/C=C/c1ccc(O)c(O)c1)O[C@@H](COC(=O)c1cc(O)c(O)c(O)c1)[C@@H](O)C(=O)O` registered an IC50 in assay [2] of 26 µM. In other words, the double-digit micromolar range.

`O=C(O)c1cc(O)c(O)c(O)c1` [GALLIC ACID] had an IC50 in assay [2] of more than 1000 µM. The compound further came in with an inhibition in assay [3] of 4%.

`O=C(/C=C/c1ccc(O)c(O)c1)O[C@@H](C(=O)O)[C@@H](O)COC(=O)c1cc(O)c(O)c(O)c1`: the IC50 in assay [2] is 246 µM.

In assay [2], `O=c1c(O[C@@H]2O[C@H](CO)[C@H](O)[C@H](O)[C@H]2O[C@@H]2OC[C@@H](O)[C@H](O)[C@H]2O)c(-c2ccc(O)c(O)c2)oc2cc(O)cc(O)c12` had an IC50 of 300 µM.

Compound `O=C(O)/C=C/c1ccc(O)c(O)c1` [CAFFEIC ACID] yielded an IC50 in assay [2] of more than 1000 µM. This compound also showed an inhibition in assay [3] of 13%.
